Common to all, as to assay type: functional
For assay [1], the system named is Staphylococcus aureus. Nature of the assay: Antibacterial activity against Staphylococcus aureus ATCC 29213 after 24 hrs by two fold serial dilution method. As to conditions: ATCC 29213, 24 h.
The next assay deals with Enterococcus faecalis. Nature of the assay: Antibacterial activity against Enterococcus faecalis after 24 hrs by two fold serial dilution method.
For another assay, the system named is Candida tropicalis. As to the kind of experiment: Antifungal activity against Candida tropicalis after 24 hrs by two fold serial dilution method.
The subject of assay [2] is Pseudomonas aeruginosa. Nature of the assay: Antibacterial activity against Pseudomonas aeruginosa after 24 hrs by two fold serial dilution method.
In assay [3] the test system is Pseudomonas aeruginosa. As to the kind of experiment: Antibacterial activity against Pseudomonas aeruginosa ATCC 27853 after 24 hrs by two fold serial dilution method. As to conditions: ATCC 27853, 24 h.
A further assay deals with Klebsiella pneumoniae. Nature of the assay: Antibacterial activity against Klebsiella pneumoniae after 24 hrs by two fold serial dilution method.
The test system of assay [4] is Escherichia coli. As to the kind of experiment: Antibacterial activity against Escherichia coli after 24 hrs by two fold serial dilution method.
For assay [5], the system named is Candida albicans. As to the kind of experiment: Antifungal activity against Candida albicans after 24 hrs by two fold serial dilution method.
For assay [6], the system named is Staphylococcus aureus. As to the kind of experiment: Antibacterial activity against Staphylococcus aureus ATCC 25923 after 24 hrs by two fold serial dilution method. As to conditions: ATCC 25923, 24 h.
The subject of another assay is Candida parapsilosis. Nature of the assay: Antifungal activity against Candida parapsilosis ATCC 22019 after 24 hrs by two fold serial dilution method. As to conditions: ATCC 22019, 24 h.
The next assay relates to Acinetobacter baumannii. As to the kind of experiment: Antibacterial activity against Acinetobacter baumannii after 24 hrs by two fold serial dilution method.
Assay [7] has as its system Staphylococcus aureus. As to the kind of experiment: Antibacterial activity against methicillin-resistant Staphylococcus aureus N315 after 24 hrs by two fold serial dilution method. The settings on record: N315, 24 h.
For assay [8], the system named is Candida albicans. As to the kind of experiment: Antifungal activity against Candida albicans ATCC 90023 after 24 hrs by two fold serial dilution method. The settings on record: ATCC 90023, 24 h.
For assay [9], the system named is Escherichia coli. Nature of the assay: Antibacterial activity against Escherichia coli ATCC 25922 after 24 hrs by two fold serial dilution method. The settings on record: ATCC 25922, 24 h.
Assay [10] relates to Staphylococcus aureus. As to the kind of experiment: Antibacterial activity against Staphylococcus aureus after 24 hrs by two fold serial dilution method.
The next assay concerns Aspergillus fumigatus. Nature of the assay: Antifungal activity against Aspergillus fumigatus after 24 hrs by two fold serial dilution method.

The results in this text go back to ChEMBL document CHEMBL4219183, “Novel purine benzimidazoles as antimicrobial agents by regulating ROS generation and targeting clinically resistant Staphylococcus aureus DNA groove” (Bioorg Med Chem Lett, 2018).

≈ marks a conversion by molar mass, not a printed value.

For orientation: MIC means the least concentration at which growth counts as inhibited. A lower MIC goes with inhibition by little substance. In general, MIC80 refers to an inhibitory concentration at the 80% level, which refers to growth in some studies and to a panel of isolates in others.

Take `CCn1c(Cn2cnc3c(N4CCOCC4)ncnc32)nc2ccccc21`: the MIC worked out at 256 µg/mL (≈ 704 µM) against Staphylococcus aureus [1]; 128 µg/mL (≈ 352 µM) against Enterococcus faecalis; 128 µg/mL (≈ 352 µM) in the assay on Pseudomonas aeruginosa [2]; 256 µg/mL (≈ 704 µM) in the assay on Pseudomonas aeruginosa [3]; 256 µg/mL (≈ 704 µM) in the assay with Klebsiella pneumoniae; 128 µg/mL (≈ 352 µM) in the assay on Escherichia coli [4]. Moreover, the minimum inhibitory concentration (MIC) was found to be 256 µg/mL (≈ 704 µM) against Staphylococcus aureus [6]; 256 µg/mL (≈ 704 µM) with Acinetobacter baumannii; 256 µg/mL (≈ 704 µM) in the assay with Staphylococcus aureus [7]; 128 µg/mL (≈ 352 µM) against Escherichia coli [9]; 256 µg/mL (≈ 704 µM) in the assay with Staphylococcus aureus [10]. Also, the MIC80 in the assay with Candida tropicalis was 256 µg/mL (≈ 704 µM); in the assay with Candida albicans [5], 256 µg/mL (≈ 704 µM); against Candida parapsilosis, 256 µg/mL (≈ 704 µM); with Candida albicans [8], 128 µg/mL (≈ 352 µM); in the assay on Aspergillus fumigatus it was 256 µg/mL (≈ 704 µM).
Regarding `CCCCCCCCn1c(Cn2cnc3c(N4CCOCC4)ncnc32)nc2ccccc21`, the MIC against Staphylococcus aureus [1] worked out at 256 µg/mL (≈ 572 µM); against Enterococcus faecalis, 256 µg/mL (≈ 572 µM); with Pseudomonas aeruginosa [2] it was 256 µg/mL (≈ 572 µM); in the assay on Pseudomonas aeruginosa [3], 128 µg/mL (≈ 286 µM); against Klebsiella pneumoniae, 256 µg/mL (≈ 572 µM); in the assay on Escherichia coli [4] it was 256 µg/mL (≈ 572 µM). In addition, the MIC came out at 512 µg/mL (≈ 1140 µM) against Staphylococcus aureus [6]; 256 µg/mL (≈ 572 µM) against Acinetobacter baumannii; 512 µg/mL (≈ 1140 µM) with Staphylococcus aureus [7]; 256 µg/mL (≈ 572 µM) in the assay with Escherichia coli [9]; 512 µg/mL (≈ 1140 µM) with Staphylococcus aureus [10]. Besides, the MIC80 in the assay on Candida tropicalis was 256 µg/mL (≈ 572 µM); with Candida albicans [5] it was 256 µg/mL (≈ 572 µM); with Candida parapsilosis it was 512 µg/mL (≈ 1140 µM); with Candida albicans [8], 64 µg/mL (≈ 143 µM); against Aspergillus fumigatus it was 512 µg/mL (≈ 1140 µM).
Consider `c1nc(N2CCCCC2)c2nc[nH]c2n1`, for which the MIC with Staphylococcus aureus [1] was 512 µg/mL (≈ 2520 µM); in the assay on Enterococcus faecalis, 256 µg/mL (≈ 1260 µM); in the assay with Pseudomonas aeruginosa [2] it was 256 µg/mL (≈ 1260 µM); against Pseudomonas aeruginosa [3], 64 µg/mL (≈ 315 µM); against Klebsiella pneumoniae, 256 µg/mL (≈ 1260 µM); in the assay on Escherichia coli [4], 256 µg/mL (≈ 1260 µM). The minimal inhibitory concentration (MIC) was determined as 512 µg/mL (≈ 2520 µM) against Staphylococcus aureus [6]; 128 µg/mL (≈ 630 µM) against Acinetobacter baumannii; 512 µg/mL (≈ 2520 µM) in the assay on Staphylococcus aureus [7]; 256 µg/mL (≈ 1260 µM) in the assay with Escherichia coli [9]; 32 µg/mL (≈ 157 µM) against Staphylococcus aureus [10]. Besides, the MIC80 in the assay with Candida tropicalis came out at 256 µg/mL (≈ 1260 µM); against Candida albicans [5], 128 µg/mL (≈ 630 µM); in the assay on Candida parapsilosis it was 512 µg/mL (≈ 2520 µM); in the assay on Candida albicans [8] it was 128 µg/mL (≈ 630 µM); against Aspergillus fumigatus it was 64 µg/mL (≈ 315 µM).
Take `Cc1cc2ncn(CCn3cnc4c(N5CCOCC5)ncnc43)c2cc1C`: the MIC in the assay with Staphylococcus aureus [1] was found to be 128 µg/mL (≈ 339 µM); against Enterococcus faecalis it was 128 µg/mL (≈ 339 µM); against Pseudomonas aeruginosa [2], 32 µg/mL (≈ 84.8 µM); in the assay on Pseudomonas aeruginosa [3], 128 µg/mL (≈ 339 µM); in the assay on Klebsiella pneumoniae, 64 µg/mL (≈ 170 µM); against Escherichia coli [4], 256 µg/mL (≈ 678 µM). The minimal inhibitory concentration (MIC) against Staphylococcus aureus [6], in the assay on Acinetobacter baumannii, with Staphylococcus aureus [7], against Escherichia coli [9] and against Staphylococcus aureus [10] was 256 µg/mL (≈ 678 µM) each time. In addition, the MIC80 with Candida tropicalis was found to be 128 µg/mL (≈ 339 µM); in the assay with Candida albicans [5], 256 µg/mL (≈ 678 µM); in the assay on Candida parapsilosis, 256 µg/mL (≈ 678 µM); against Candida albicans [8] it was 128 µg/mL (≈ 339 µM); with Aspergillus fumigatus, 128 µg/mL (≈ 339 µM).
In the case of `c1ccc2c(c1)ncn2CCn1cnc2c(N3CCOCC3)ncnc21`, the minimal inhibitory concentration (MIC) against Staphylococcus aureus [1] is 256 µg/mL (≈ 733 µM); against Enterococcus faecalis it was 128 µg/mL (≈ 366 µM); in the assay with Pseudomonas aeruginosa [2], 128 µg/mL (≈ 366 µM); in the assay on Pseudomonas aeruginosa [3], 256 µg/mL (≈ 733 µM); against Klebsiella pneumoniae it was 256 µg/mL (≈ 733 µM); in the assay on Escherichia coli [4], 256 µg/mL (≈ 733 µM). Moreover, the minimum inhibitory concentration (MIC) with Staphylococcus aureus [6] was determined as 256 µg/mL (≈ 733 µM); in the assay on Acinetobacter baumannii it was 256 µg/mL (≈ 733 µM); in the assay with Staphylococcus aureus [7], 256 µg/mL (≈ 733 µM); against Escherichia coli [9], 128 µg/mL (≈ 366 µM); with Staphylococcus aureus [10], 256 µg/mL (≈ 733 µM). In addition, the MIC80 against Candida tropicalis stood at 256 µg/mL (≈ 733 µM); with Candida albicans [5], 256 µg/mL (≈ 733 µM); against Candida parapsilosis, 128 µg/mL (≈ 366 µM); against Candida albicans [8], 128 µg/mL (≈ 366 µM); against Aspergillus fumigatus, 256 µg/mL (≈ 733 µM).
`CCCCCCCCCCn1c(Cn2cnc3c(N4CCOCC4)ncnc32)nc2ccccc21`: the MIC amounted to 256 µg/mL (≈ 538 µM) in the assay with Staphylococcus aureus [1]; 128 µg/mL (≈ 269 µM) against Enterococcus faecalis; 256 µg/mL (≈ 538 µM) in the assay on Pseudomonas aeruginosa [2]; 16 µg/mL (≈ 33.6 µM) in the assay on Pseudomonas aeruginosa [3]; 128 µg/mL (≈ 269 µM) against Klebsiella pneumoniae; 32 µg/mL (≈ 67.3 µM) against Escherichia coli [4]. Also, the MIC with Staphylococcus aureus [6] is 256 µg/mL (≈ 538 µM); with Acinetobacter baumannii, 256 µg/mL (≈ 538 µM); in the assay on Staphylococcus aureus [7], 256 µg/mL (≈ 538 µM); against Escherichia coli [9] it was 128 µg/mL (≈ 269 µM); against Staphylococcus aureus [10], 256 µg/mL (≈ 538 µM). For the same compound, the MIC80 was 256 µg/mL (≈ 538 µM) with Candida tropicalis; 128 µg/mL (≈ 269 µM) with Candida albicans [5]; 256 µg/mL (≈ 538 µM) in the assay on Candida parapsilosis; 64 µg/mL (≈ 135 µM) against Candida albicans [8]; 256 µg/mL (≈ 538 µM) against Aspergillus fumigatus.
Regarding `Clc1ccccc1Cn1c(Cn2cnc3c(N4CCOCC4)ncnc32)nc2ccccc21`, the minimum inhibitory concentration (MIC) is 32 µg/mL (≈ 69.6 µM) with Staphylococcus aureus [1]; 256 µg/mL (≈ 557 µM) with Enterococcus faecalis; 128 µg/mL (≈ 278 µM) in the assay on Pseudomonas aeruginosa [2]; 64 µg/mL (≈ 139 µM) with Pseudomonas aeruginosa [3]; 64 µg/mL (≈ 139 µM) in the assay on Klebsiella pneumoniae; 128 µg/mL (≈ 278 µM) in the assay on Escherichia coli [4]. The minimum inhibitory concentration (MIC) in the assay with Staphylococcus aureus [6] is 256 µg/mL (≈ 557 µM); against Acinetobacter baumannii it was 256 µg/mL (≈ 557 µM); against Staphylococcus aureus [7], 512 µg/mL (≈ 1110 µM); against Escherichia coli [9], 256 µg/mL (≈ 557 µM); in the assay on Staphylococcus aureus [10] it was 256 µg/mL (≈ 557 µM). Moreover, the MIC80 against Candida tropicalis, against Candida albicans [5], in the assay on Candida parapsilosis, against Candida albicans [8] and with Aspergillus fumigatus was 256 µg/mL (≈ 557 µM) in each case.
